# Article PMC10470313, “Developing a peptide to disrupt cohesin head domain interactions” (iScience, 2023)
# “And” between values parts separate entries of the source, which are not always exact repeats. Equal values may be shown once. “Also recorded” adds a separate entry of the source.
# B1: Smc3 head domain (domain or fragment, S. cerevisiae)
# chain: YIKRVIIKGFKTYRNETIIDNFSPHQNVIIGSNGSGKSNFFAAIRFVLSDDYSNLKREERQGLIHQGSGGSVMSASVEIVFHDPDHSMILPSGVLSRGDDEVTIRRTVGLKKDDYQLNDRNVTKGDIVRMLETAGFSMNNPYNIVPQGKIVALTNAKDKERLQLLEDVVGAKSFEVKLKASLKKMEETEQKKIQINKEMGELNESSKHPTSLVPRGNFKKFNERRKDLAERASELDESKDSIQDLIVKLKQQKVNAVDSTFQKVSENFEAVFERLVPRGTAKLIIHRKNDNANDHDESIDVDMDAESNESQNGKDSEIMYTGVSISVSFNSKQNEQLHVEQLSGGQKTVCAIALILAIQMVDPASFYLFDEIDAALDKQYRTAVATLLKELSKNAQFICTTFRTDMLQVADKFFRVKYENKISTVIEVNREEAIGFIRGSNKFAEV
# notes: Smc3, S. cerevisiae, N-terminal part of the head domain, amino acids 2-204; 13 amino acids linker in place of the coiled coil and hinge; Smc3, S. cerevisiae, C-terminal part of the head domain, amino acids 1001-1230; also called Smc3hd; source: E. coli BL21, purified (Ni-NTA, twice)
# Columns and labels:
# [1] = tested on: yIO-001 strain yeast cells; test: Peptide entry into yeast cells (epifluorescence microscopy); format: cell-based; conditions: 10 mM peptide, 1 h, 30°C, mid-log phase, FITC epifluorescence
# Procedure: The formation of Smc3/CIP3 complexes supports our preliminary conclusion that CIP3 inhibits cohesin activity in cells. Aiming to improve the stability of the peptide in cells, we switched to using an in vitro synthesized peptide. This approach has been successfully used to inhibit protein-protein interactions in both yeast and mammalian cells.[26]^,[38]^,[39]^,[40]^,[41] […] We validated peptide entry into yeast by incubating a 26-amino acid control peptide (ContP), which was fused to the TAT, and a fluorescein isothiocyanate (FITC) fluorophore. Thereafter, 10 mM of the ContP was added to yIO-001 strain cells grown to mid-log phase at 30°C. The cells were incubated with the peptide for 1 h and analyzed by epifluorescence microscopy.
# Supplementary Figure S3. Binding of CIP3-TAT to cohesin by microscale thermophoresis, Related to Figure 3. 10 µM CIP3-TAT was added to protein extracts from strain yAM-945 (Smc3-GFP). The formation of the CIP3-TAT and cohesin complex was analyzed by MST in binding mode. A. MST trace. B. Binding analysis.
# Supplementary Figure S4. […]
# 3. […] The purified proteins were analyzed on gel, followed by coomassie staining. […]
# Supplementary Figure S5. […] The entry of the peptide into the cells was analyzed by epifluorescence microscopy.
# Supplementary Figure S6. […] The cell cycle stage of the cells, described in Fig. 4B, was determined by flow cytometry. […]
# cohesin in yeast cells = test: Preliminary analysis of biological effect; format: cell-based
# Procedure: (§1) Strains yIO1000 (control) and yME-031 (pGAL-CIP1), yME-016 (pGAL-CIP2), and yME-019 (pGAL-CIP3) cells were diluted in SC-URA galactose medium, and their growth rate was measured by optical density at 600 nm every 120 min. Cohesin is essential for cell division, so we expected that inhibition of cohesin activity by expressing a CIP would affect the cell growth rate.
# The CIP3 sequence is derived from the C-terminal region of Smc1. The 15 amino acid sequence is conserved, encoding part of a short loop and the beginning of an alpha helix located at the bottom of the head domain (Figures 1A–1C). […] We used the HPepDock 2.0 server[32]^,[33]^,[34]^,[35] to predict the docking site of CIP3 on Smc3. The coordinates of the Smc3 structure (PDB: 4ux3)[36] were entered as the receptor input and CIP3 as the sequence as the peptide input and the analysis was done using the default parameter. […] CIP3 may interfere with ATP binding to the Walker A site in Smc3. Alternatively, it may misplace the hydrolysis motif in Smc1 and inhibit that ATPase activity. It is important to note that dynamics models are required to understand the structural basis of the Smc3-CIP3 complex fully, as well as experimental validation of the model.
# [2] = tested on: yeast cells (pGAL-CIP strains); test: Yeast growth rate with galactose-induced peptide expression (OD600); format: cell-based, Saccharomyces cerevisiae; conditions: OD 600 nm every 120 min; for growth of cells overexpressing the peptide: SC-URA galactose medium, compared with control plasmid; for growth rate vs control, multiple linear regression coefficient B: logarithmic phase, galactose medium, representative experiment, vs control strain yIO1000
# Source text: We designed three cohesin-inhibiting peptides (CIPs, Table 1) to inhibit Smc1/Smc3 protein-protein interaction. CIP1 and CIP2 were derived from conserved regions in Smc3, while CIP3 was derived from a conserved region in Smc1 (Figure 1E). To explore the biological effect of the peptides on cohesin, we sought to overexpress them in cells. For that purpose, we constructed a centromeric plasmid—pME4 (CIP1), pME2 (CIP2), and pME3 (CIP3), in which the peptide coding sequence was inserted after an ATG codon and under the control of a GAL promoter. Cells were transformed with the plasmids and grown in an SC-URA medium. In addition, we transformed cells with a control plasmid (pIO014).
# as §1
# Figure 2 CIP3 causes cell growth delay Strains yIO1000 (control) and yME-031 (pGAL-CIP1), yME-016 (pGAL-CIP2), and yME-019 (pGAL-CIP3) cells were grown in a galactose-containing medium to induce peptide expression. Cell growth was monitored every 120 min to measure the optical density of the culture at 600 nm. The growth rate in the logarithmic growth phase was calculated. The results of a representative experiment are shown.
# cohesin holocomplex = test: ATPase assay of cohesin holocomplex (free Pi); format: biochemical, S. cerevisiae; conditions: 10 nM cohesin, 20 nM loader, dsDNA, 0.25 mM ATP, 20 mM TAT-CIP3 as printed, 30°C, absorbance 650 nm
# Procedure: The formation of the Smc3-CIP3 complex likely affects the ATPase activity. To explore this possibility, we expressed and purified S. cerevisiae cohesin holocomplex and the loader from yeast cells[37] (Figure S4. Purification of cohesin holocomplex and loader, related to Figure 3), and we measured the ATPase rate of cohesin in the presence of cohesin, the loader DNA, and ATP, as previously described.[37] Cohesin was preincubated without or with CIP3, and the accumulation of free Pi was measured over 30 min. In the absence of CIP3, Pi accumulation was constant over time, indicating continuous ATP hydrolysis.
# Cohesin and the Scc2-Scc4 loader were expressed in S. cerevisiae as described in[37] with the following modifications: Cells were resuspended in buffer A (50 mM Hepes-NaOH pH 7.5, 300 mM NaCl, 2 mM MgCl2, 20% (vol/vol) glycerol, 0.5 mM Tris(2-carboxyethyl)phosphine hydrochloride (TCEP), 0.5 mM Pefabloc (Sigma-Aldrich), and a protease inhibitor cocktail (Sigma-Aldrich) and lysed by seven continuous passes in EmulsiFlexby-C3 (Avastin) at 4°C. The lysate was clarified, and purifications were continuous, as described in.[37]
# ATPase assay has been done with the piColorLock kit (Expedeon) according to the manufacturer manual. […] The reaction was incubated at 30°C for 20 minutes and the amount of free was measured for 30 min minutes by absorbance in 650 nm every 5 min […].
# yeast cells = test: Yeast growth with CIP3 expressed from T2A ribosome-skipping vector; format: cell-based, Saccharomyces cerevisiae; conditions: CIP3 followed by GFP in T2A vector, GAL promoter
# Source text: The weak effect of CIP3 expressed in cells may relate to several reasons, including low expression levels, low translation efficiency, or cellular instability of short mRNAs and peptides. We tried to increase cellular mRNA stability by using a plasmid containing the T2A ribosome-skipping sequence under GAL promoter control.[29]^,[30]^,[31] Two genes cloned in tandem and separated by a T2A linker were expressed as a single mRNA. The ribosome skips the T2A sequence during translation, resulting in two separate proteins (Figure S1A. Peptide expression from a plasmid containing T2A ribosome-skipping sequence, related to Figure 2). To test the system, we cloned green fluorescent protein (GFP) and mCherry in tandem, separated by the T2A sequence. Cells carrying the plasmids were grown in SC-URA with either noninducing raffinose or inducing galactose. […] Both GFP and mCherry proteins were detected by western blot analysis of extracts from these cells (Figure S1C. Peptide expression from a plasmid containing T2A ribosome-skipping sequence, related to Figure 2). […]
# CIP3-TAT [3] = target: T1, CIP3-TAT (S. cerevisiae | HIV); test: field-effect biosensing (FEB Agile R100); 500 nM peptide immobilised on a graphene sensor chip; purified Smc3 head domain as analyte, incubated with ATP (10 mM) before the measurement; conditions: both partners purified
# T1 construct: Smc1, S. cerevisiae, residues 1121-1135 (conserved region of the head domain); linker between the Smc1 stretch and the TAT stretch; 11-amino acid peptide from the HIV TAT protein, added for delivery into cells; The methods of the biosensing experiment call the immobilised peptide CIP3; also called TAT-CIP3; source: synthetic peptide (Fmoc solid-phase synthesis, purified by preparative RP-HPLC)
# T1 peptide: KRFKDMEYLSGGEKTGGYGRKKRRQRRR
# CIP3-TAT [4] = target: T1, CIP3-TAT; test: field-effect biosensing (FEB Agile R100); 500 nM peptide immobilised on a graphene sensor chip; purified Smc3 head domain as analyte in rising concentrations; PBS baseline; without ATP; Kd by Hill fit or from kon and koff at a single concentration; conditions: both partners purified
molecule,measurement,setting,value
"FITC-SGYGRKKRRQRRR-GGGLNPYWMETFT [ContP, 26-amino acid control peptide fused to the TAT and a fluorescein isothiocyanate (FITC) fluorophore]",peptide entry into yeast cells,[1],emission from cells incubated with the ContP peptide
"MIIGSNGSGKSN [CIP2, expressed from pME2]","biological effect, preliminary analysis",cohesin in yeast cells,do not have a detectable biological effect
same,growth of cells overexpressing the peptide,[2],no significant decrease in growth rate
same,"growth rate vs control, multiple linear regression coefficient B",[2],−0.290
"MKQNEQLHVEQLSGGQKTV [CIP1, expressed from pME4]","biological effect, preliminary analysis",cohesin in yeast cells,do not have a detectable biological effect
same,growth of cells overexpressing the peptide,[2],no significant decrease in growth rate
same,"growth rate vs control, multiple linear regression coefficient B",[2],0.015
"MKRFKDMEYLSGGEKT [CIP3, expressed from pME3]",Pi accumulation (ATPase activity) after 5 min,cohesin holocomplex,"Pi accumulation dropped sharply, indicating that ATPase activity was inhibited"
same,growth of cells overexpressing the peptide,[2],weak growth delay; also recorded: significant decrease in growth rate
same,"growth rate vs control, multiple linear regression coefficient B",[2],−0.727
same,growth inhibition compared to previous (non-T2A) experiment,yeast cells,the inhibition fold was not improved
B1,Kd,CIP3-TAT [3],544.2 ± 0.06 nM
same,Kd,CIP3-TAT [4],53.9 nM and 56 nM
